Test results published in patent publication US20200009121A1, “Purpose for Soothing Brain Disorders of Patients from Drug Detoxification Using Biperiden HCL” (priority 2018, published 2020).
Structures can show the parent of a compound that is named as a salt.

Test system: brain disorders of patients from drug detoxification
Test: Biperiden Hcl given to patients after block-out of poisoning pathway (drug detoxification) treatment
Assay type: in vivo
Settings: dose 10 mg/ml
Experimental: A Biperiden Hcl 10 medicine of the disclosure is a cure of Parkinson's disease and can reduce effect of acetylcholine of Extrapyramidal Symptoms (EPS) on it to further decrease excitement of central nervous. […] With reference to FIG. 1, a Biperiden Hcl 10 medicine is applied after patients are treated with block-out of poisoning pathway, wherein poisoning pathway treatment 20 can adapt intravenous drip prescription 30 disclosed in U.S. utility patent application Ser. No.10/004,781 owned by the inventor(s) and purpose treatment thereof, providing the intravenous drip prescription 30 to patients. The intravenous drip prescription 30 comprises a plurality of ingredients consisting of Cerebrolysin, Piracetam, Cimetidine, Scopolamine Butylbromide, Nefopam, B. C Complex, Vitamin B1, Ascorbic acid, Ketorolac, Guronsan, Hyoscien Butylbromide, and Sukerin. After a patient is dealt with poisoning pathway treatment 20, a dose (10 mg/ml) of Biperiden Hcl 10 is provided to the patient to sooth brain disorder of the patient from the poisoning pathway treatment 20 of the patient, capable of rapidly recovering consciousness and normal physiological state.

SMILES: OC(CCN1CCCCC1)(c1ccccc1)C1CC2C=CC1C2 (stereo not shown) [Biperiden Hcl]
- soothing brain disorders of patients and recovering consciousness and normal physiological state: excellent effect of soothing brain disorders of patients and recovering consciousness and normal physiological state
